Reference: ChEMBL document CHEMBL4364299, “Discovery of a Potent Kelch-Like ECH-Associated Protein 1-Nuclear Factor Erythroid 2-Related Factor 2 (Keap1-Nrf2) Protein-Protein Interaction Inhibitor with Natural Proline Structure as a Cytoprotective Agent against Acetaminophen-Induced Hepatotoxicity” (J Med Chem, 2019)
Activity calls are given as the source filed them. No cut-off for these calls is given here.

Experiments:
[1] = target: T1, Nuclear factor erythroid 2-related factor 2 (Homo sapiens) (UniProt Q16236); experiment: Activation of Nrf2 (unknown origin) stably transfected in human HepG2-ARE-C8 cells assessed as increase in ARE-driven luciferase activity by luciferase reporter gene assay; type: cell-based
T1 sequence (whole entry): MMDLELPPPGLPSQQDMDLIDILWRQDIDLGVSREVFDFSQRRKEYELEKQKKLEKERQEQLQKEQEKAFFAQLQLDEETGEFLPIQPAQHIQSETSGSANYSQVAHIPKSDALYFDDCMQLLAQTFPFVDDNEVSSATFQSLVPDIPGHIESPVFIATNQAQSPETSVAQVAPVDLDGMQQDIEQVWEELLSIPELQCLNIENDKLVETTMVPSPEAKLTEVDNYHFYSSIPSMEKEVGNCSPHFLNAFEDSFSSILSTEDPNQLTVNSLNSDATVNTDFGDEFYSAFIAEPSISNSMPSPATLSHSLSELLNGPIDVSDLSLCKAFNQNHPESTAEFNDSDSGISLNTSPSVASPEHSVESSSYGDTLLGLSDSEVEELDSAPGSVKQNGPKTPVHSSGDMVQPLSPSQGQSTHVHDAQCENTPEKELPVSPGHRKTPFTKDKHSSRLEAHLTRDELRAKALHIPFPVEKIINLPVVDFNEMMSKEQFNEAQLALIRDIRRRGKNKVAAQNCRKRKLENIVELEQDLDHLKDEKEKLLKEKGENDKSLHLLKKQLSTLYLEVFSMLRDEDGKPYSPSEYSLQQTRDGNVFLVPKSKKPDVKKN

[2] = target: T1, Nuclear factor erythroid 2-related factor 2 (Homo sapiens); experiment: Activation of Nrf2 in human L02 cells harboring control siRNA assessed as increase in NQO-1 mRNA expression at 10 uM measured after 10 hrs by trizol reagent based qRT-PCR analysis; type: cell-based
[3] = target: T1, Nuclear factor erythroid 2-related factor 2 (Homo sapiens); experiment: Activation of Nrf2 in human L02 cells assessed as increase in NEFL2L mRNA expression measured after 12 hrs by trizol reagent based qRT-PCR analysis; type: cell-based
[4] = target: T1, Nuclear factor erythroid 2-related factor 2 (Homo sapiens); experiment: Activation of Nrf2 in human L02 cells assessed as increase in NEFL2L expression at 10 uM measured after 4 to 72 hrs hrs by Western blot analysis; type: cell-based
Mus musculus [5] = experiment: Protection against APAP-induced hepatotoxicity in C57BL/6 mouse assessed as decrease in TNFalpha production at 10 mg/kg, ip treated 2 hrs prior to 22 hrs starvation followed by APAP challenge and measured after 6 hrs; type: functional, organism-based
Mus musculus [6] = experiment: Protection against APAP-induced hepatotoxicity in C57BL/6 mouse assessed as decrease in ALP level at 10 mg/kg, ip treated 2 hrs prior to 22 hrs starvation followed by APAP challenge and measured after 6 hrs; type: functional, organism-based
[7] = target: T1, Nuclear factor erythroid 2-related factor 2 (Homo sapiens); experiment: Activation of Nrf2 in human L02 cells harboring control siRNA assessed as increase in GCLM expression at 10 uM measured after 10 hrs by Western blot analysis; type: cell-based
L02 [8] = experiment: Cytoprotective activity against APAP-induced hepatotoxicity in human L02 cells assessed as increase in cell viability at 1 to 20 uM preincubated for 12 hrs followed by APAP addition and measured after 24 hrs by MTT assay; type: functional, cell-based
Mus musculus [9] = experiment: Protection against APAP-induced hepatotoxicity in C57BL/6 mouse assessed as decrease in NQO1 expression in liver at 10 to 40 mg/kg, ip treated 2 hrs prior to 22 hrs starvation followed by APAP challenge and measured after 6 hrs by Dako/Mayer's hematoxylin staining-based immunohistochemical analysis; type: functional, organism-based
Mus musculus [10] = experiment: Protection against APAP-induced hepatotoxicity in C57BL/6 mouse assessed as decrease in alpha-SMA expression in liver at 10 to 40 mg/kg, ip treated 2 hrs prior to 22 hrs starvation followed by APAP challenge and measured after 6 hrs by Dako/Mayer's hematoxylin staining-based immunohistochemical analysis; type: functional, organism-based
Mus musculus [11] = experiment: Protection against APAP-induced hepatotoxicity in C57BL/6 mouse assessed as decrease in liver hemorrhage at 10 to 40 mg/kg, ip treated 2 hrs prior to 22 hrs starvation followed by APAP challenge and measured after 6 hrs by H and E staining-based light microscopic analysis; type: functional, organism-based
Mus musculus [12] = experiment: Protection against APAP-induced hepatotoxicity in C57BL/6 mouse assessed as decrease in IL6 production at 10 mg/kg, ip treated 2 hrs prior to 22 hrs starvation followed by APAP challenge and measured after 6 hrs; type: functional, organism-based
L02 [13] = experiment: Upregulation of HO-1 expression in human L02 cells harboring Nrf2 siRNA at 10 uM measured after 10 hrs by Western blot analysis; type: functional, cell-based
L02 [14] = experiment: Cytoprotective activity against APAP-induced oxidative stress in human L02 cells assessed as decrease in ALP level at 5 to 10 uM preincubated for 12 hrs followed by APAP stimulation and measured after 24 hrs; type: functional, cell-based
Mus musculus [15] = experiment: Protection against APAP-induced hepatotoxicity in C57BL/6 mouse assessed as decrease in total bilirubin level at 10 mg/kg, ip treated 2 hrs prior to 22 hrs starvation followed by APAP challenge and measured after 6 hrs; type: functional, organism-based
Mus musculus [16] = experiment: Protection against APAP-induced hepatotoxicity in C57BL/6 mouse assessed as decrease in MPO activity in liver at 10 to 40 mg/kg, ip treated 2 hrs prior to 22 hrs starvation followed by APAP challenge and measured after 6 hrs; type: functional, organism-based
[17] = target: T1, Nuclear factor erythroid 2-related factor 2 (Homo sapiens); experiment: Activation of Nrf2 in human L02 cells harboring control siRNA assessed as increase in GCLM mRNA expression at 10 uM measured after 10 hrs by trizol reagent based qRT-PCR analysis; type: cell-based
[18] = target: T1, Nuclear factor erythroid 2-related factor 2 (Homo sapiens); experiment: Activation of Nrf2 in human L02 cells assessed as increase in GCLM mRNA expression measured after 12 hrs by trizol reagent based qRT-PCR analysis; type: cell-based
L02 [19] = experiment: Cytoprotective activity against APAP-induced oxidative stress in human L02 cells assessed as increase in GSH/GSSG ratio at 5 to 10 uM preincubated for 12 hrs followed by APAP stimulation and measured after 24 hrs; type: functional, cell-based
[20] = target: T1, Nuclear factor erythroid 2-related factor 2 (Homo sapiens); experiment: Activation of Nrf2 in human L02 cells harboring control siRNA assessed as increase in NEFL2L mRNA expression at 10 uM measured after 10 hrs by trizol reagent based qRT-PCR analysis; type: cell-based
L02 [21] = experiment: Cytoprotective activity against APAP-induced oxidative stress in human L02 cells assessed as decrease in ALT level at 5 to 10 uM preincubated for 12 hrs followed by APAP stimulation and measured after 24 hrs; type: functional, cell-based
L02 [22] = experiment: Cytoprotective activity against APAP-induced oxidative stress in human L02 cells assessed as decrease in MDA activity at 5 to 10 uM preincubated for 12 hrs followed by APAP stimulation and measured after 24 hrs; type: functional, cell-based
Mus musculus [23] = experiment: Protection against APAP-induced hepatotoxicity in C57BL/6 mouse assessed as decrease in MDA activity in liver at 10 to 40 mg/kg, ip treated 2 hrs prior to 22 hrs starvation followed by APAP challenge and measured after 6 hrs; type: functional, organism-based
L02 [24] = conditions: Homo sapiens, 5 to 10 uM
Description: Cytoprotective activity against APAP-induced hepatotoxicity in human L02 cells assessed as inhibition of TNFalpha production at 5 to 10 uM preincubated for 12 hrs followed by APAP stimulation and measured after 24 hrs by ELISA

L02 [25] = experiment: Cytotoxicity against human L02 cells assessed as reduction in cell viability up to 100 uM measured after 48 hrs by MTT assay; type: cell-based; conditions: l02, 48 h

For `COc1ccc(S(=O)(=O)N(CC(=O)O)c2ccc(N3CCC[C@H]3C(=O)O)c3ccccc23)cc1`, the Activity [1] was “Dose-dependent effect”, the Activity [2] was “Active” and the Activity [3] was “Dose-dependent effect”. For the same molecule, the Activity [4] was “Active”, the Activity (Mus musculus [5]) was “Active” and the Activity (Mus musculus [6]) was “Active”. For the same molecule, the Activity [7] was “Active”, the Activity (L02 [8]) was “Active” and the Activity (Mus musculus [9]) was “Active”. For the same molecule, the Activity (Mus musculus [10]) was “Active”, the Activity (Mus musculus [11]) was “Active” and the Activity (Mus musculus [12]) was “Active”. For the same molecule, the Activity (L02 [13]) was “inactive”, the Activity (L02 [14]) was “Active” and the Activity (Mus musculus [15]) was “Active”. The Activity (Mus musculus [16]) was “Active”, the Activity [17] was “Active” and the Activity [18] was “Dose-dependent effect”. The Activity (L02 [19]) was “Active”, the Activity [20] was “Active” and the Activity (L02 [21]) was “Active”. The Activity (L02 [22]) was “Active”, the Activity (Mus musculus [23]) was “Active” and the inhibition (L02 [24]) was “Active”. The Activity (L02 [25]) was “Non-Toxic”.
